Measured values from PMC9329436, “Optimization of the 4-anilinoquin(az)oline scaffold as epidermal growth factor receptor (EGFR) inhibitors for chordoma utilizing a toxicology profiling assay platform” (Scientific Reports, 2022).
Where two headings read alike, the source gives them in different places.

Experiments:
Format in all cases: biochemical
[1] = target: 320 wild-type protein kinases (Homo sapiens, UniProt P06241); conditions: FYN, singlicate
Text: (§1) Table S4. Profiling of two compounds at two concentrations against 320 wild-type protein kinases; singlicate measurement; Residual activities (% of control).

[2] = target: 320 wild-type protein kinases (Homo sapiens, UniProt P16591); conditions: FER, singlicate
320 wild-type protein kinases (Homo sapiens, UniProt P16591), sequence (P16591 whole entry): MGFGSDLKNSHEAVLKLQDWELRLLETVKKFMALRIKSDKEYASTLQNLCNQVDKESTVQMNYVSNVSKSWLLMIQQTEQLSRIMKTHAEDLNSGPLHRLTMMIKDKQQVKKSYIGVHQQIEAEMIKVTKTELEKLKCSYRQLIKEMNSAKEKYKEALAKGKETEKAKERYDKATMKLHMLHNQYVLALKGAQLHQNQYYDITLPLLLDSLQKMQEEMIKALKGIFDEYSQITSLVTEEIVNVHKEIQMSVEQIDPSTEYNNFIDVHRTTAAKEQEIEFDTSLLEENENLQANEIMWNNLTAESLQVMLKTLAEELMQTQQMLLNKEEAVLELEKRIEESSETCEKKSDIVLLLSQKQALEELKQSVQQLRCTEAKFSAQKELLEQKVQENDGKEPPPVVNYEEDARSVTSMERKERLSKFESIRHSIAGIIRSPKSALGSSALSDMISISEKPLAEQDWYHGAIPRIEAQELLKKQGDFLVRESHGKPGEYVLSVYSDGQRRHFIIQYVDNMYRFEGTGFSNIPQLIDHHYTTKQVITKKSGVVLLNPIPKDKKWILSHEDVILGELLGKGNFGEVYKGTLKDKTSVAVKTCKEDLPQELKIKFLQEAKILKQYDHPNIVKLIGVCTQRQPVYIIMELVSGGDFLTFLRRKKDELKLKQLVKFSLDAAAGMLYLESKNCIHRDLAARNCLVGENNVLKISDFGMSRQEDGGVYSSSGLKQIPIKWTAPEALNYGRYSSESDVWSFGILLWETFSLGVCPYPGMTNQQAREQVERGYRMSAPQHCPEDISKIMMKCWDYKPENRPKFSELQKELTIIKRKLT
Text: as §1

[3] = target: 320 wild-type protein kinases (Homo sapiens, UniProt P17948); conditions: kinase VEGF-R1, singlicate
320 wild-type protein kinases (Homo sapiens, UniProt P17948), sequence (P17948 27-1338): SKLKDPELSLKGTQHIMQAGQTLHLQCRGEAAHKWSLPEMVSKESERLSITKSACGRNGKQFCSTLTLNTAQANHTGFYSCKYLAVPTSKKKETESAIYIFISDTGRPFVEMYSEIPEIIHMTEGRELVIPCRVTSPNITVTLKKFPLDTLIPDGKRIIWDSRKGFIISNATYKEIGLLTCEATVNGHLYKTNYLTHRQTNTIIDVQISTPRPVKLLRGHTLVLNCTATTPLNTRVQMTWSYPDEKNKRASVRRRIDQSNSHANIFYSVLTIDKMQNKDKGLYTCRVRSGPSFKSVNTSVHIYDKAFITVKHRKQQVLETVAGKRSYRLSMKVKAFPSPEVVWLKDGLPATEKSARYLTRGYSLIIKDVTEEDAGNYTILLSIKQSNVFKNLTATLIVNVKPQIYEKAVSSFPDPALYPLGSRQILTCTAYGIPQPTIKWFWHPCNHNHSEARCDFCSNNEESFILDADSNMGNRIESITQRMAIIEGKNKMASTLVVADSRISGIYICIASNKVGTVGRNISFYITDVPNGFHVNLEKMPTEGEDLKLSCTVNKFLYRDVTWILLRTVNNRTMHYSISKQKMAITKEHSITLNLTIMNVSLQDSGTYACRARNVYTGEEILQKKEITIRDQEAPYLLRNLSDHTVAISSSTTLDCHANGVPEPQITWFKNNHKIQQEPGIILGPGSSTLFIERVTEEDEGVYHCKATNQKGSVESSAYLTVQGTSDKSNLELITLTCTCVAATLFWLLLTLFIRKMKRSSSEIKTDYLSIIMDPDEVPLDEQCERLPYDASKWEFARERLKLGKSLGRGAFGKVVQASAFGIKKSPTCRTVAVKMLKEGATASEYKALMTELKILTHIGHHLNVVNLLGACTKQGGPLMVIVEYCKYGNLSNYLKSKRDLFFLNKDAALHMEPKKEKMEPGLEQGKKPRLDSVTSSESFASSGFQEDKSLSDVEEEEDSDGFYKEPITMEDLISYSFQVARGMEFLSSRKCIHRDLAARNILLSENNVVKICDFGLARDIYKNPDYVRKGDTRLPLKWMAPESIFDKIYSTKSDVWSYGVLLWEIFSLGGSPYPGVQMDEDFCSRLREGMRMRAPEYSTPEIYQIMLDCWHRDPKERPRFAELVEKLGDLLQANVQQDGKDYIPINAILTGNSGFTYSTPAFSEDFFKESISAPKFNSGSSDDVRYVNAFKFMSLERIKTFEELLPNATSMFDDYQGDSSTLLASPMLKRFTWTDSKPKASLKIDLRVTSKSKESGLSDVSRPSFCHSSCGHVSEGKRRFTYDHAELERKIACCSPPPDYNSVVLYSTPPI
Text: as §1

[4] = target: T1, 320 wild-type protein kinases (Homo sapiens, UniProt P51956); conditions: singlicate
T1 sequence (P51956 1-506): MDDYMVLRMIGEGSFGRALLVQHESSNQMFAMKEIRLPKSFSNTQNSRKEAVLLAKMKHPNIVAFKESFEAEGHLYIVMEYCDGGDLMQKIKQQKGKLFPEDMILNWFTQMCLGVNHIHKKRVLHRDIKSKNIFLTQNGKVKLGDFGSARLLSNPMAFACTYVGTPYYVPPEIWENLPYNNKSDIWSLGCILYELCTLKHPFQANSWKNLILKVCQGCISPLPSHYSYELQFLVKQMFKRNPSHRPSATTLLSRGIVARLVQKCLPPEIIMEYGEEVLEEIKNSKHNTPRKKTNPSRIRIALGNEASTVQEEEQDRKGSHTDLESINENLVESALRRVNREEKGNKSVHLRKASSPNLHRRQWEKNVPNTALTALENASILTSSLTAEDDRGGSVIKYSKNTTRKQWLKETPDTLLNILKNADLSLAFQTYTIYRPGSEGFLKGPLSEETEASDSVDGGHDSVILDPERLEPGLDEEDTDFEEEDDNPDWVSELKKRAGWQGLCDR
Text: as §1

[5] = target: 320 wild-type protein kinases (Homo sapiens, UniProt Q13464); conditions: kinase ROCK1, singlicate
320 wild-type protein kinases (Homo sapiens, UniProt Q13464), sequence (Q13464 whole entry): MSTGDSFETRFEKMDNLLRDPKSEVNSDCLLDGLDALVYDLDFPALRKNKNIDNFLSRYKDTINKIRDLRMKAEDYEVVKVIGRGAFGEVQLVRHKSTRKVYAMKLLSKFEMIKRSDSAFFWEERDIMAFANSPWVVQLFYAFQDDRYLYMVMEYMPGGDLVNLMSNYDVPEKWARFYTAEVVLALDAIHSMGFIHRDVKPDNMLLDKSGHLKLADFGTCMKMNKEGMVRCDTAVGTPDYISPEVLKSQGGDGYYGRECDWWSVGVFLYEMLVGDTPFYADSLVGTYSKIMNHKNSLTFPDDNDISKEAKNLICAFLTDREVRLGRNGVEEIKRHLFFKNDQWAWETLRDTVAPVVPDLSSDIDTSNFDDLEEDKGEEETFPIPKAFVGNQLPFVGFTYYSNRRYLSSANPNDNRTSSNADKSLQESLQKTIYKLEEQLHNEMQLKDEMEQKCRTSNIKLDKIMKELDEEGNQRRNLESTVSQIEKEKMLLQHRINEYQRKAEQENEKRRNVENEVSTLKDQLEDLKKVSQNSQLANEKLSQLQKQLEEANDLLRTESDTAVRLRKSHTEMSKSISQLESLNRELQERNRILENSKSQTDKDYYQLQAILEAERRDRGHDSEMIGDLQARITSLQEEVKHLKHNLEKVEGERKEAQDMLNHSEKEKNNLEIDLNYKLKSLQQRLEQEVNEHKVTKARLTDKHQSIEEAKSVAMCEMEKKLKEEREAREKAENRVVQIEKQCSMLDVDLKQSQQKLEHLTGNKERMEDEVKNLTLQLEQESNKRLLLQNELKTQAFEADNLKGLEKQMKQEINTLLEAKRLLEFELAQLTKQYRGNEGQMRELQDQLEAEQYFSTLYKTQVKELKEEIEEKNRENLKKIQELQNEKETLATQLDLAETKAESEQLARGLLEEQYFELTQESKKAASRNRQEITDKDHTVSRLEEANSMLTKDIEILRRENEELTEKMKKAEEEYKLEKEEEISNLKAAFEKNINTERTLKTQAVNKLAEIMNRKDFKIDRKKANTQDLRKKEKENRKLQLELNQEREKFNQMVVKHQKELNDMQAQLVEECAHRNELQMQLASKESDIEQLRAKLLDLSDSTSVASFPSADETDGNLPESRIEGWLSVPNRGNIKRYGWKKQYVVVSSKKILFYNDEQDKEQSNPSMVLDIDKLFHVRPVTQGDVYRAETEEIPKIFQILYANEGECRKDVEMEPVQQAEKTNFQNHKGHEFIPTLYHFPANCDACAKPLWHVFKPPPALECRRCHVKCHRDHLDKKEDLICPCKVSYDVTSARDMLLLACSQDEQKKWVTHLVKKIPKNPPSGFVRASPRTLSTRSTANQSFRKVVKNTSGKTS
Text: as §1

[6] = target: 320 wild-type protein kinases (Homo sapiens, UniProt Q16288); conditions: kinase TRK-C, singlicate
320 wild-type protein kinases (Homo sapiens, UniProt Q16288), sequence (Q16288 32-839): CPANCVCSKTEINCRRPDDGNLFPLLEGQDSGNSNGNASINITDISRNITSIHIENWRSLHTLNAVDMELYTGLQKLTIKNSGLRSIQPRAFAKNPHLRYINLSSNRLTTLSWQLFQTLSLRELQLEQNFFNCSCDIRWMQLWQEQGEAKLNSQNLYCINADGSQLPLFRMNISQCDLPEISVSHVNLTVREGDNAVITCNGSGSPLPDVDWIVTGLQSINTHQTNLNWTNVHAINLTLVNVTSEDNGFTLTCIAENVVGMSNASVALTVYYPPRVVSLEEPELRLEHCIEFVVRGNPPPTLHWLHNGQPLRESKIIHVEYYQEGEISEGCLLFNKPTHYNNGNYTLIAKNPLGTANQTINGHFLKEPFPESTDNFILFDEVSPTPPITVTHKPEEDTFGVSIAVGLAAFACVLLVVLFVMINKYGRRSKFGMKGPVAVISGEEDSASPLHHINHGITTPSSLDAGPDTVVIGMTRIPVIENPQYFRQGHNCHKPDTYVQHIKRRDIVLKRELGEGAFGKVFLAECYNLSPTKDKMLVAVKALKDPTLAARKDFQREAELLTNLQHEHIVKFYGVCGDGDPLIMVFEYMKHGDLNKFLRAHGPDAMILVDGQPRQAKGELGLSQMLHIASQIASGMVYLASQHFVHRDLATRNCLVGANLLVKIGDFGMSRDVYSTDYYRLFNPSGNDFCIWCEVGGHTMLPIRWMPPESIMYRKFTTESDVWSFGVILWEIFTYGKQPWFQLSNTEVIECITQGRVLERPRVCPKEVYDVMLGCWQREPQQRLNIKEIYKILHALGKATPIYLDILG
Text: as §1

[7] = target: 320 wild-type protein kinases (Homo sapiens, UniProt Q96RG2); conditions: PASK, singlicate
Text: as §1

[8] = target: T2, 320 wild-type protein kinases (Homo sapiens, UniProt Q9H2K8); conditions: kinase TAOK3, singlicate
T2 sequence (Q9H2K8 1-898): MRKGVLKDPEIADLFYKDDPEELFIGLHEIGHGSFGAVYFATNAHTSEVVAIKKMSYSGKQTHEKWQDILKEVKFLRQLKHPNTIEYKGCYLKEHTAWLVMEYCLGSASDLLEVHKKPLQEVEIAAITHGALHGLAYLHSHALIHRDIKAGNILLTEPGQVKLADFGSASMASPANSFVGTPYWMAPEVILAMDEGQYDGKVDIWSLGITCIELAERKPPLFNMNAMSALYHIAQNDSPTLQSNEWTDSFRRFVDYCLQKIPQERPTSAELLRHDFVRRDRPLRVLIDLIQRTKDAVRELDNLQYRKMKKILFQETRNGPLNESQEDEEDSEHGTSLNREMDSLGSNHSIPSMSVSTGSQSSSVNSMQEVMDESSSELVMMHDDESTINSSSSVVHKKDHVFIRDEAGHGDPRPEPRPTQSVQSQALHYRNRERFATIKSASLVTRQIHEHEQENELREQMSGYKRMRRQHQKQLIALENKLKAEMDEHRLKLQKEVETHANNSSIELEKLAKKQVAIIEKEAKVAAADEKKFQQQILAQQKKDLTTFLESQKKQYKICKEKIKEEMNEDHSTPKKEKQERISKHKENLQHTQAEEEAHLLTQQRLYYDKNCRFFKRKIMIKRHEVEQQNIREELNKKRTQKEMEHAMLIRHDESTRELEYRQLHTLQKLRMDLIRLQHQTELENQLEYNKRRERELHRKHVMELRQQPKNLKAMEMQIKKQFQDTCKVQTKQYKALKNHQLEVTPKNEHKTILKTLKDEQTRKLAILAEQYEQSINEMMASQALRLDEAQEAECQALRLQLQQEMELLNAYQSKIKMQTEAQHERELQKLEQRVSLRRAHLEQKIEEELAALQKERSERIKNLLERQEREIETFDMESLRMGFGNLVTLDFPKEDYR
Text: as §1

[9] = target: T3, 320 wild-type protein kinases (Homo sapiens, UniProt Q9UKI8); conditions: kinase TLK1, singlicate
T3 sequence (Q9UKI8 1-766): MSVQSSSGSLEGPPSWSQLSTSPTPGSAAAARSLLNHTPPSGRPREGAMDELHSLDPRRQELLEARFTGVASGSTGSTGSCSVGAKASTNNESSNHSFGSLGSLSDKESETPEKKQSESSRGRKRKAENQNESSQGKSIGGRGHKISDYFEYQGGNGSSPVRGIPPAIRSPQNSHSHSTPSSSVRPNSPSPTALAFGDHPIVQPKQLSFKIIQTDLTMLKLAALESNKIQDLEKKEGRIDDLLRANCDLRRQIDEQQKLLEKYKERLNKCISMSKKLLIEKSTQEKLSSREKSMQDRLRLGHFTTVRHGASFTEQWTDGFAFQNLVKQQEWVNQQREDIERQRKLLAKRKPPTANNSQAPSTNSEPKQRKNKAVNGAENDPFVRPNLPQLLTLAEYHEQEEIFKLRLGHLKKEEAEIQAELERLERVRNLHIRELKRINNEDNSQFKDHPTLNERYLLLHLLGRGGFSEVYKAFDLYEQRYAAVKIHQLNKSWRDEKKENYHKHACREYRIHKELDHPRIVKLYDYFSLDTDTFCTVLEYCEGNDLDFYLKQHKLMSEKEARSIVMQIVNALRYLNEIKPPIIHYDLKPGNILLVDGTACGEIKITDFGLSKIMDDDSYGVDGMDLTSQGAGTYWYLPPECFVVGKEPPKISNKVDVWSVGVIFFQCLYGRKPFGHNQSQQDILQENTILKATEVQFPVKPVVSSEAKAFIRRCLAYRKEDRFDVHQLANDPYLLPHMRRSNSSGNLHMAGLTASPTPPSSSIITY
Text: as §1

320 wild-type protein kinases (Homo sapiens, UniProt P06241), sequence (P06241 whole entry): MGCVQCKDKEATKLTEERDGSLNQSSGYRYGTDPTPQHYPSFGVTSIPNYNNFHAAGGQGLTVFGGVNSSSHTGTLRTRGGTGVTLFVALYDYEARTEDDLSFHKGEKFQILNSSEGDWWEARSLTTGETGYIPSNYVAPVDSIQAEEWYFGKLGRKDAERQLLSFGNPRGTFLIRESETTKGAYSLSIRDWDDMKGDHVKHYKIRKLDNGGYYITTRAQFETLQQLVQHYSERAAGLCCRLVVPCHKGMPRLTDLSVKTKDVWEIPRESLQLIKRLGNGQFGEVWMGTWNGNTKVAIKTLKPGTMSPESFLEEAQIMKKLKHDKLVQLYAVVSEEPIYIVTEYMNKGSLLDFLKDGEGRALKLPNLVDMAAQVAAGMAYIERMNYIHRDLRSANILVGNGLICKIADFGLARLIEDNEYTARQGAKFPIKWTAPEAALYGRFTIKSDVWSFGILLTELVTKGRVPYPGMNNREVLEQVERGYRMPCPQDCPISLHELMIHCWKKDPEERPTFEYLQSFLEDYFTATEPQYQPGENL

Which Residual activity ([1]; 1.0E-06 M) does the source give for `C#Cc1cc(Nc2ncnc3cc(I)ccc23)ccc1Cl` [Compound 41] here?
Its Residual activity is 101 % of control.

What about the Residual activity ([1]; 1.0E-07 M) of the same compound?
Its Residual activity is 107 % of control.

What about the Residual activity ([2]; 1.0E-06 M) of the same compound?
Its Residual activity is 110 % of control.

And the Residual activity ([2]; 1.0E-07 M)?
The Residual activity was 113 % of control.

What about the “Residual activity, VEGF-R1” value ([3]; assay conc. 1.0E-06 M) of the same compound?
The value was 113 % of control.

What about the “Residual activity, VEGF-R1” value ([3]; assay conc. 1.0E-07 M) of the same compound?
Its value is 92 % of control.

And the Residual activity ([4]; NEK3, 1.0E-06 M)?
Its Residual activity is 103 % of control.

What about the Residual activity ([4]; NEK3, 1.0E-07 M) of the same compound?
The Residual activity was 110 % of control.

What about the “Residual activity, ROCK1” value ([5]; assay conc. 1.0E-06 M) of the same compound?
Its value is 91 % of control.

And the “Residual activity, ROCK1” value ([5]; assay conc. 1.0E-07 M)?
The value was 84 % of control.

What about the “Residual activity, TRK-C” value ([6]; assay conc. 1.0E-06 M) of the same compound?
The value was 105 % of control.

What about the “Residual activity, TRK-C” value ([6]; assay conc. 1.0E-07 M) of the same compound?
The value was 115 % of control.

And the Residual activity ([7]; 1.0E-06 M)?
Its Residual activity is 101 % of control.

What about the Residual activity ([7]; 1.0E-07 M) of the same compound?
Its Residual activity is 102 % of control.

And the “Residual activity, TAOK3” value ([8]; assay conc. 1.0E-06 M)?
Its value is 93 % of control.

And the “Residual activity, TAOK3” value ([8]; assay conc. 1.0E-07 M)?
The value was 87 % of control.

And the “Residual activity, TLK1” value ([9]; assay conc. 1.0E-06 M)?
Its value is 100 % of control.

And the “Residual activity, TLK1” value ([9]; assay conc. 1.0E-07 M)?
The value was 110 % of control.

What does the source list for `C#Cc1cc(Nc2ncnc3cc(OC)c(OC)cc23)ccc1Cl` [Compound 45]?
Residual activity ([1]; 1.0E-06 M): 76 % of control; Residual activity ([1]; 1.0E-07 M): 110 % of control; Residual activity ([2]; 1.0E-06 M): 93 % of control; Residual activity ([2]; 1.0E-07 M): 115 % of control; Residual activity, VEGF-R1 ([3]; assay conc. 1.0E-06 M): 85 % of control; Residual activity, VEGF-R1 ([3]; assay conc. 1.0E-07 M): 119 % of control; Residual activity ([4]; NEK3, 1.0E-06 M): 113 % of control; Residual activity ([4]; NEK3, 1.0E-07 M): 101 % of control; Residual activity, ROCK1 ([5]; assay conc. 1.0E-06 M): 83 % of control; Residual activity, ROCK1 ([5]; assay conc. 1.0E-07 M): 98 % of control; Residual activity, TRK-C ([6]; assay conc. 1.0E-06 M): 113 % of control; Residual activity, TRK-C ([6]; assay conc. 1.0E-07 M): 136 % of control; Residual activity ([7]; 1.0E-06 M): 93 % of control; Residual activity ([7]; 1.0E-07 M): 98 % of control; Residual activity, TAOK3 ([8]; assay conc. 1.0E-06 M): 106 % of control; Residual activity, TAOK3 ([8]; assay conc. 1.0E-07 M): 92 % of control; Residual activity, TLK1 ([9]; assay conc. 1.0E-06 M): 108 % of control; Residual activity, TLK1 ([9]; assay conc. 1.0E-07 M): 112 % of control
